Test results reported in ChEMBL document CHEMBL1201862, “PubChem BioAssay data set” (2004).
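Each compound was tested at five concentrations against cells in 96-well plates for 48 hours. GI50 marks 50% less growth.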 Active and inactive are the calls of the source. No stated cut-off is given here; in the data, active = GI50 up to about 1.1 µM and inactive = higher.

Columns and labels:
Assay in all cases: NCI anticancer screen, dose series, 48 h
786-0 = tested on: 786-0
DU-145 = tested on: DU-145
U-251 = tested on: U-251
HL-60 = tested on: HL-60
MDA-MB-231 = tested on: MDA-MB-231
NCI-H522 = tested on: NCI-H522
RPMI-8226 = tested on: RPMI-8226
SNB-19 = tested on: SNB-19
OVCAR-4 = tested on: OVCAR-4
A549 = tested on: A549
TK-10 = tested on: TK-10
PC-3 = tested on: PC-3
MOLT-4 = tested on: MOLT-4
SF-539 = tested on: SF-539
Malme-3M = tested on: Malme-3M
SNB-75 = tested on: SNB-75
HT-29 = tested on: HT-29
SF-268 = tested on: SF-268
SF-295 = tested on: SF-295
EKVX = tested on: EKVX

Measured: GI50

CCSc1cc2c(cc1O)CC[C@@H]1[C@@H]2CC[C@]2(C)[C@@H](O)CC[C@@H]12
inactive: 786-0 12.2 µM | DU-145 24.5 µM | U-251 12.6 µM | HL-60 4.54 µM | MDA-MB-231 4.94 µM | NCI-H522 6.61 µM | RPMI-8226 8.17 µM | SNB-19 12.1 µM | OVCAR-4 18.3 µM | A549 4.3 µM | TK-10 27.1 µM | PC-3 5.71 µM | MOLT-4 4.98 µM | SF-539 15.8 µM | Malme-3M 11.2 µM | SNB-75 15.2 µM | HT-29 10.8 µM | SF-268 29 µM

Cc1[nH]c(-c2ccccc2)c(-c2ccc(Cl)cc2)c1C(=O)ONC(=O)c1ccccc1
inactive: SF-295 2.1 µM | 786-0 1.9 µM | DU-145 1.58 µM | U-251 1.78 µM | HL-60 1.5 µM | MDA-MB-231 3.64 µM | NCI-H522 2.1 µM | RPMI-8226 3.02 µM | SNB-19 4.86 µM | OVCAR-4 2.62 µM | A549 2.19 µM | TK-10 2.81 µM | PC-3 4.94 µM | MOLT-4 2.69 µM | SF-539 2.22 µM | Malme-3M 10.2 µM | EKVX 3.07 µM | SNB-75 3.56 µM | HT-29 4.6 µM | SF-268 2.34 µM

O=C1C(/C=N/CCc2c[nH]c3ccccc23)C(C(F)(F)F)=NN1c1nc2ccccc2s1 (stereo not drawn)
inactive: SF-295 24 µM | 786-0 39.2 µM | DU-145 23.3 µM | U-251 34.8 µM | HL-60 19.8 µM | MDA-MB-231 36.7 µM | NCI-H522 19.5 µM | RPMI-8226 22.2 µM | SNB-19 36.5 µM | OVCAR-4 26.7 µM | A549 18.3 µM | TK-10 25.4 µM | PC-3 31 µM | MOLT-4 21.1 µM | SF-539 31.1 µM | Malme-3M 29.6 µM | EKVX 23.1 µM | SNB-75 24.8 µM | HT-29 27.5 µM | SF-268 50.5 µM

COC(=O)[C@]1(C)CCCC2(C)C3=C(CCC21)CC1(CC3)SCCS1 (stereo partly drawn)
inactive: 786-0 > 10 µM | DU-145 > 10 µM | U-251 > 10 µM | HL-60 > 10 µM | MDA-MB-231 > 10 µM | NCI-H522 > 10 µM | RPMI-8226 > 10 µM | SNB-19 > 10 µM | OVCAR-4 > 10 µM | A549 > 10 µM | TK-10 > 10 µM | PC-3 > 10 µM | MOLT-4 > 10 µM | SF-539 > 10 µM | Malme-3M > 10 µM | EKVX > 10 µM | SNB-75 > 10 µM | HT-29 > 10 µM | SF-268 > 10 µM

Cn1[nH]nn/c1=N\N=C\c1ccccc1
inactive: SF-295 > 10 µM | 786-0 > 10 µM | DU-145 > 10 µM | U-251 > 10 µM | HL-60 > 10 µM | MDA-MB-231 > 10 µM | NCI-H522 > 10 µM | RPMI-8226 > 10 µM | SNB-19 > 10 µM | OVCAR-4 > 10 µM | A549 > 10 µM | TK-10 > 10 µM | PC-3 > 10 µM | MOLT-4 > 10 µM | SF-539 > 10 µM | EKVX 2.9 µM | SNB-75 > 10 µM | HT-29 > 10 µM | SF-268 > 10 µM

OCC(O)C(O)C(O)C(O)c1nc2cc(Cl)ccc2[nH]1 (stereo not drawn)
inactive: SF-295 28.8 µM | 786-0 > 100 µM | DU-145 > 100 µM | U-251 > 100 µM | HL-60 2.14 µM | MDA-MB-231 > 100 µM | NCI-H522 > 100 µM | RPMI-8226 > 100 µM | SNB-19 > 100 µM | OVCAR-4 > 100 µM | A549 > 100 µM | TK-10 > 100 µM | PC-3 > 100 µM | MOLT-4 > 100 µM | SF-539 > 100 µM | Malme-3M > 100 µM | EKVX > 100 µM | SNB-75 > 100 µM | HT-29 > 100 µM | SF-268 > 100 µM

CCOP(=O)(CCCC(O)CNc1cc(Cl)nc(N)n1)OCC (stereo not drawn)
inactive: SF-295 > 100 µM | 786-0 > 100 µM | DU-145 > 100 µM | U-251 > 100 µM | HL-60 > 100 µM | MDA-MB-231 > 100 µM | NCI-H522 > 100 µM | RPMI-8226 > 100 µM | OVCAR-4 > 100 µM | A549 > 100 µM | TK-10 > 100 µM | PC-3 > 100 µM | MOLT-4 > 100 µM | SF-539 > 100 µM | Malme-3M > 100 µM | EKVX > 100 µM | SNB-75 > 100 µM | HT-29 > 100 µM | SF-268 > 100 µM

Cc1cc(/N=C/c2ccc(N(C)C)cc2)n(-c2ccccc2)n1
inactive: SF-295 30.8 µM | 786-0 51.8 µM | DU-145 35.6 µM | U-251 27.4 µM | HL-60 17.9 µM | MDA-MB-231 91.6 µM | NCI-H522 30.1 µM | RPMI-8226 91.8 µM | SNB-19 61.2 µM | OVCAR-4 > 100 µM | A549 42.4 µM | TK-10 46.8 µM | PC-3 48.4 µM | MOLT-4 42.6 µM | SF-539 45.9 µM | Malme-3M > 100 µM | EKVX 57.8 µM | SNB-75 40.6 µM | HT-29 12.6 µM | SF-268 74.3 µM

COC(=O)[C@@H]1CN(C(C)=O)C(=O)N1
inactive: SF-295 > 100 µM | 786-0 > 100 µM | DU-145 > 100 µM | U-251 > 100 µM | HL-60 > 100 µM | MDA-MB-231 5.06 µM | NCI-H522 > 100 µM | RPMI-8226 > 100 µM | SNB-19 > 100 µM | OVCAR-4 > 100 µM | A549 > 100 µM | TK-10 > 100 µM | PC-3 > 100 µM | MOLT-4 > 100 µM | SF-539 > 100 µM | Malme-3M > 100 µM | EKVX > 100 µM | SNB-75 > 100 µM | HT-29 > 100 µM | SF-268 > 100 µM

CC(C)(C)c1cc(/C=C/C(=O)CC(=O)/C=C/c2cc(C(C)(C)C)c(O)c(C(C)(C)C)c2)cc(C(C)(C)C)c1O
inactive: SF-295 > 50 µM | 786-0 > 50 µM | DU-145 > 50 µM | U-251 > 50 µM | HL-60 > 50 µM | MDA-MB-231 > 50 µM | NCI-H522 > 50 µM | RPMI-8226 > 50 µM | SNB-19 > 50 µM | OVCAR-4 > 50 µM | A549 > 50 µM | TK-10 > 50 µM | PC-3 > 50 µM | SF-539 > 50 µM | EKVX > 50 µM | SNB-75 > 50 µM | HT-29 > 50 µM | SF-268 > 50 µM
